Patent US7851474B2, “Dipiperazinyl ketones and related analogues” (Neurogen Corporation, priority 2005, dated 2010)
pKi: −log10 of the molar value.

target: T1, chimeric human H3 receptor (Homo sapiens, UniProt Q9Y5N1, E19D); assay: Chimeric human H3 receptor GTP binding assay (agonist-stimulated GTP-gamma35S binding, Example 7); assay type: biochemical; conditions: Table II, "*" in Ki; assay of Example 7; read-out: Ki
T1 construct: made in house; host or cells: Sf9 insect cells (baculovirus infection); P2 membrane preparation
Procedure, shortened: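 IC50 values come from non-linear regression of dose-response curves of filter-bound GTP-gamma^35S, counted by scintillation. Membranes were from infected Sf9 cells carrying receptor plus G-protein subunits, 35 μg/tube, with 10 μM GDP present.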

T1 sequence (Q9Y5N1 with tags, fused parts or gaps E19D): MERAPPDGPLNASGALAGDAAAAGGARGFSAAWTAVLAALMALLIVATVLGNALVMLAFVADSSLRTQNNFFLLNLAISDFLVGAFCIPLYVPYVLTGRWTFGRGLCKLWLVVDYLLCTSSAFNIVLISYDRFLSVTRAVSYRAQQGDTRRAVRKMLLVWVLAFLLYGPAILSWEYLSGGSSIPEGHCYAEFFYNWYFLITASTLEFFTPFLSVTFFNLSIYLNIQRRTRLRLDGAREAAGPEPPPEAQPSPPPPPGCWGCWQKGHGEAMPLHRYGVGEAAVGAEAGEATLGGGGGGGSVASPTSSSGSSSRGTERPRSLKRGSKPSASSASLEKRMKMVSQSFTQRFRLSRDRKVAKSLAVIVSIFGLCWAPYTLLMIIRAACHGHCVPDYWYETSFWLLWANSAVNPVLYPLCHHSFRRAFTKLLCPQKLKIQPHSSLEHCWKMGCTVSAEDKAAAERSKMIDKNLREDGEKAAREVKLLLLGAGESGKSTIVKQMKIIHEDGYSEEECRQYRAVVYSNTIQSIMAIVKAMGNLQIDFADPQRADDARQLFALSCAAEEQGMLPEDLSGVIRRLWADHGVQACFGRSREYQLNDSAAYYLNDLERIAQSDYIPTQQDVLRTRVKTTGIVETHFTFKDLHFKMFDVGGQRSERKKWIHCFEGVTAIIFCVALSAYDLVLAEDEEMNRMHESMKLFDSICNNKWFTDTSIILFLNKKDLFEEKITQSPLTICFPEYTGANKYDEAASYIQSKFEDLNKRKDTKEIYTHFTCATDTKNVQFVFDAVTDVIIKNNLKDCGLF

pKi, > 6.00:
O=C(CN1CCN(c2ccc(C(=O)N3CC=CCC3)cn2)CC1)N1CCN(C2CCC2)CC1 [Compound 609, 1-cyclobutyl-4-({4-[5-(3,6-dihydropyridin-1(2H)-ylcarbonyl)pyridin-2-yl]piperazin-1-yl}acetyl)piperazine]
O=C(CN1CCN(c2ccc(C(=O)N3CCCCC3)cn2)CC1)N1CCN(C2CCC2)CC1 [Compound 610, 1-cyclobutyl-4-({4-[5-(piperidin-1-ylcarbonyl)pyridin-1-yl]piperazin-1-yl}acetyl)piperazine]
O=C(CN1CCN(c2ccc(C(=O)N3CCCC3)cn2)CC1)N1CCN(C2CCC2)CC1 [Compound 611, 1-cyclobutyl-4-({4-[5-(pyrrolidin-1-ylcarbonyl)pyridin-2-yl]piperazin-1-yl}acetyl)piperazine]
CCC1CCCCN1C(=O)c1cccc(N2CCN(CC(=O)N3CCN(C4CCC4)CC3)CC2)c1 (centres unmarked) [Compound 638, 1-cyclobutyl-4-[(4-{3-[(2-ethylpiperidin-1-yl)carbonyl]phenyl}piperazin-1-yl)acetyl]piperazine]
CC1CCCCN1C(=O)c1cccc(N2CCN(CC(=O)N3CCN(C4CCC4)CC3)CC2)c1 (centres unmarked) [Compound 639, 1-cyclobutyl-4-[(4-{3-[(2-methylpiperidin-1-yl)carbonyl]phenyl}piperazin-1-yl)acetyl]piperazine]
CC1CCCN1C(=O)c1cccc(N2CCN(CC(=O)N3CCN(C4CCC4)CC3)CC2)c1 (centres unmarked) [Compound 640, 1-cyclobutyl-4-[(4-{3-[(2-methylpyrrolidin-1-yl)carbonyl]phenyl}piperazin-1-yl)acetyl]piperazine]
CC1CC(C)CN(C(=O)c2cccc(N3CCN(CC(=O)N4CCN(C5CCC5)CC4)CC3)c2)C1 (centres unmarked) [Compound 641, 1-cyclobutyl-4-[(4-{3-[(3,5-dimethylpiperidin-1-yl)carbonyl]phenyl}piperazin-1-yl)acetyl]piperzaine]
CC1CCN(C(=O)c2cccc(N3CCN(CC(=O)N4CCN(C5CCC5)CC4)CC3)c2)CC1 [Compound 642, 1-cyclobutyl-4-[(4-{3-[(4-methylpiperidin-1-yl)carbonyl]phenyl}piperazin-1-yl)acetyl]piperazine]
CCC1CCCCN1C(=O)c1ccc(N2CCN(CC(=O)N3CCN(C4CCC4)CC3)CC2)cc1 (centres unmarked) [Compound 643, 1-cyclobutyl-4-[(4-{4-[(2-ethylpiperidin-1-yl)carbonyl]phenyl}piperazin-1-yl)acetyl]piperazine]
CC1CCCCN1C(=O)c1ccc(N2CCN(CC(=O)N3CCN(C4CCC4)CC3)CC2)cc1 (centres unmarked) [Compound 644, 1-cyclobutyl-4-[(4-{4-[(2-methylpiperidin-1-yl)carbonyl]phenyl}piperazin-1-yl)acetyl]piperazine]
CC1CCCN1C(=O)c1ccc(N2CCN(CC(=O)N3CCN(C4CCC4)CC3)CC2)cc1 (centres unmarked) [Compound 645, 1-cyclobutyl-4-[(4-{4-[(2-methylpyrrolidin-1-yl)carbonyl]phenyl}piperazin-1-yl)acetyl]piperazine]
CC1CC(C)CN(C(=O)c2ccc(N3CCN(CC(=O)N4CCN(C5CCC5)CC4)CC3)cc2)C1 (centres unmarked) [Compound 646, 1-cyclobutyl-4-[(4-{4-[(3,5-dimethylpiperidin-1-yl)carbonyl]phenyl}piperazin-1-yl)acetyl]piperazine]
O=C(CN1CCN(c2ccc(C(=O)N3CCC(F)(F)CC3)cc2)CC1)N1CCN(C2CCC2)CC1 [Compound 647, 1-cyclobutyl-4-[(4-{4-[(4,4-difluoropiperidin-1-yl)carbonyl]phenyl}piperazin-1-yl)acetyl]piperazine]
O=C(CN1CCN(c2ccc(C(=O)N3CCC(F)CC3)cc2)CC1)N1CCN(C2CCC2)CC1 [Compound 648, 1-cyclobutyl-4-[(4-{4-[(4-fluoropiperidin-1-yl)carbonyl]phenyl}piperazin-1-yl)acetyl]piperazine]
CC1CCN(C(=O)c2ccc(N3CCN(CC(=O)N4CCN(C5CCC5)CC4)CC3)cc2)CC1 [Compound 649, 1-cyclobutyl-4-[(4-{4-[(4-methylpiperidin-1-yl)carbonyl]phenyl}piperazin-1-yl)acetyl]piperazine]
CCC1CCCCN1C(=O)c1ccc(N2CCN(CC(=O)N3CCN(C4CCC4)CC3)CC2)nc1 (centres unmarked) [Compound 650, 1-cyclobutyl-4-[(4-{5-[(2-ethylpiperidin-1-yl)carbonyl]pyridin-2-yl}piperazin-1-yl)acetyl]piperazine]
CC1CCCCN1C(=O)c1ccc(N2CCN(CC(=O)N3CCN(C4CCC4)CC3)CC2)nc1 (centres unmarked) [Compound 651, 1-cyclobutyl-4-[(4-{5-[(2-methylpiperidin-1-yl)carbonyl]pyridin-2-yl}piperazin-1-yl)acetyl]piperazine]
CC1CCCN1C(=O)c1ccc(N2CCN(CC(=O)N3CCN(C4CCC4)CC3)CC2)nc1 (centres unmarked) [Compound 652, 1-cyclobutyl-4-[(4-{5-[(2-methylpyrrolidin-1-yl)carbonyl]pyridin-1-yl}piperazin-1-yl)acetyl]piperazine]
CC1CC(C)CN(C(=O)c2ccc(N3CCN(CC(=O)N4CCN(C5CCC5)CC4)CC3)nc2)C1 (centres unmarked) [Compound 653, 1-cyclobutyl-4-[(4-{5-[(3,5-dimethylpiperidin-1-yl)carbonyl]pyridin-2-yl}piperazin-1-yl)acetyl]piperazine]
O=C(CN1CCC(F)(c2ccccc2)CC1)N1CCN(C2CCC2)CC1 [Compound 654, 1-cyclobutyl-4-[(4-fluoro-4-phenylpiperidin-1-yl)acetyl]piperazine]
O=C(CN1CC=C(c2ccccc2)CC1)N1CCN(C2CCC2)CC1 [Compound 656, 1-cyclobutyl-4-[(4-phenyl-3,6-dihydropyridin-1(2H)-yl)acetyl]piperazine]
O=C(CN1CCN(c2ccccc2)CC1)N1CCN(C2CCC2)CC1 [Compound 657, 1-cyclobutyl-4-[(4-phenylpiperazin-1-yl)acetyl]piperazine]
O=C(CN1CCC(N2CCCC2)CC1)N1CCN(C2CCC2)CC1 [Compound 658, 1-cyclobutyl-4-[(4-pyrrolidin-1-ylpiperidin-1-yl)acetyl]piperazine]
O=C(CN1CCN(c2ccc(-c3cccc(Cl)c3Cl)cc2)CC1)N1CCN(C2CCC2)CC1 [Compound 665, 1-cyclobutyl-4-{[4-(2′,3′-dichlorobiphenyl-4-yl)piperazin-1-yl]acetyl}piperazine]
O=C(CN1CCN(c2cccc(Cl)c2Cl)CC1)N1CCN(C2CCC2)CC1 [Compound 666, 1-cyclobutyl-4-{[4-(2,3-dichlorophenyl)piperazin-1-yl]acetyl}piperazine]
O=C(CN1CCN(c2ccc(-c3cccc(F)c3F)cc2)CC1)N1CCN(C2CCC2)CC1 [Compound 667, 1-cyclobutyl-4-{[4-(2′,3′-difluorobiphenyl-4-yl)piperazin-1-yl]acetyl}piperazine]
